# “And” between values parts separate entries of the source, which are not always exact repeats. Equal entries are not always repeated.
# What was measured:
# Type in all cases: functional
# 3T3-L1 [1] = assay: Acute effects in vitro by measuring 2-deoxyglucose (2DG) uptake in vehicle treated 3T3-L1 adipocytes at 10 uM dose.
# Mus musculus [2] = assay: In vivo hypoglycemic activity expressed as glucose lowering relative to positive control in 6-8 week old C57BL/6J ob/ob mouse at 10 mg/kg
# Rattus norvegicus = species: Rattus norvegicus; assay: Inhibition of gluconeogenesis in rat
# 3T3-L1 [3] = assay: Acute effects in vitro by measuring 2-deoxyglucose (2DG) uptake in vehicle treated 3T3-L1 adipocytes at 30 uM dose.
# Mus musculus [4] = assay: compound was tested in vivo for hypoglycemic activity expressed as Glucose lowering relative to positive control in 6-8 week old C57BL/6J ob/ob mouse at 50 mg/kg
# 3T3-L1 [5] = assay: In vitro measurements of 2-Deoxyglucose (2DG) uptake in vehicle treated 3T3-L1 adipocytes at 60 uM dose.
# Mus musculus [6] = assay: In vivo hypoglycemic activity expressed as glucose lowering relative to positive control in 6-8 week old C57BL/6J ob/ob mouse at 5 mg/kg.
# Mus musculus [7] = assay: In vivo hypoglycemic activity expressed as glucose lowering relative to positive control in 6-8 week old C57BL/6J ob/ob mouse at 1 mg/kg.
# 3T3-L1 [8] = assay: In vitro by measurements of 2-Deoxyglucose (2DG) uptake in vehicle treated 3T3-L1 adipocytes at 3 uM dose.
# 3T3-L1 [9] = assay: In vitro measurements 2-Deoxyglucose (2DG) uptake in vehicle treated 3T3-L1 adipocytes at 100 uM dose.
# [10] = Rattus norvegicus, read-out: ED50
Compound,Basal uptake (3T3-L1 [1]) [%],Hypoglycemic activity (Mus musculus [2]) [%],ED50 (Rattus norvegicus; [10]) [mg/kg],Basal uptake (3T3-L1 [3]),Hypoglycemic activity (Mus musculus [6]) [%],further results
CC(Cc1ccc(Cl)cc1)(Oc1ccc(Cc2ccc(Cl)cc2)cc1)C(=O)[O-].[Na+] (stereo not given),94,<0,> 10,112% and 90%,–,–
Cc1ccc(S(=O)(=O)C(Cc2ccc(Cl)cc2)C(=O)O)cc1 (stereo not given),–,–,> 50,–,–,Hypoglycemic activity (Mus musculus [4]): <0%; Basal uptake (3T3-L1 [5]): 89%
CC(C)c1ccc(OC(C)(Cc2ccc(Cl)cc2)C(=O)CO)cc1 (stereo not given),–,32,> 10,–,–,–
CC(Cc1ccc(Cl)cc1)(Oc1ccc(Cc2ccccc2)cc1)C(=O)[O-].[Na+] (stereo not given),–,96,1,109%,100,Basal uptake (3T3-L1 [5]): 214%; Hypoglycemic activity (Mus musculus [7]): 44%
CC(C)c1ccc2c(c1)C(c1ccc(Cl)cc1)C(C(=O)O)O2 (stereo not given),–,–,> 50,–,–,Hypoglycemic activity (Mus musculus [4]): 25%; Basal uptake (3T3-L1 [5]): 89%
COc1ccc(S(=O)(=O)NC(=O)C(C)(Oc2ccc(C(C)C)cc2)C(C)c2ccc(Cl)cc2)cc1 (stereo not given),113,16,> 10,162%,–,Basal uptake (3T3-L1 [8]): 130%
CCCc1ccc(CC(C)(Oc2ccc(Cc3ccccc3)cc2)C(=O)[O-])cc1.[Na+] (stereo not given),–,96,1,–,91,Hypoglycemic activity (Mus musculus [7]): 24%
CC(C)c1ccc(OC(C)(C(=O)O)C2CCc3cc(Cl)ccc32)cc1 (stereo in doubt; 100),83,–,–,89%,78,Hypoglycemic activity (Mus musculus [2]; 10 mg/kg): 105%; Basal uptake (3T3-L1 [8]): 85%; ED50 (Rattus norvegicus): 1 mg/kg; Hypoglycemic activity (Mus musculus [7]): 14%
CC(C)c1ccc(OC(C)(Cc2ccc(Cl)cc2)c2nnn[nH]2)cc1 (stereo not given),105,<0,10,159% and 105%,–,–
CC(C)c1ccc(OC(C(=O)[O-])C(C)c2ccc(Cl)cc2)cc1.[Na+] (stereo not given),–,41,> 10,–,–,Basal uptake (3T3-L1 [5]): 98%
CCc1cccc(CC(C)(Oc2ccc(C3CCSc4ccccc43)cc2)C(=O)[O-])c1.[Na+] (stereo not given),113,35,> 10,–,–,Basal uptake (3T3-L1 [8]): 116% and 104%
CC(C)c1ccc(OC(C)(C(=O)O)C(C)c2ccc(Cl)cc2)cc1 (stereo in doubt; 85),128,–,–,131%,–,Hypoglycemic activity (Mus musculus [2]; 10 mg/kg): 46%; Basal uptake (3T3-L1 [5]): 209%; ED50 (Rattus norvegicus): >10 mg/kg
CCc1ccccc1CC(C)(Oc1ccc(C(C)C)cc1)C(=O)[O-].[Na+] (stereo not given),–,95,5,–,53,Hypoglycemic activity (Mus musculus [7]): 32%
CC(C)c1ccc(OC(C)(Cc2ccc(C(C)(C)C)cc2)C(=O)O)cc1 (stereo not given),104,102,5,213% and 103%,47,Hypoglycemic activity (Mus musculus [7]): 41%
COc1ccccc1CC(C)(Oc1ccc(C(C)C)cc1)C(=O)O (stereo not given),100,<0,> 10,122%,–,Basal uptake (3T3-L1 [5]): 120%
CCc1ccc(CC(C)(Oc2ccc(Cc3ccccc3)cc2)C(=O)[O-])cc1.[Na+] (stereo not given),–,107,1,–,104,Hypoglycemic activity (Mus musculus [7]): 44%
CCc1ccc(CC(C)(Oc2ccc(Oc3ccccc3)cc2)C(=O)O)cc1 (stereo not given),–,130,1,–,113,Hypoglycemic activity (Mus musculus [7]): 48%
CC(C)c1ccc(OC(C)(Cc2ccc3ccccc3c2)C(=O)O)cc1 (stereo not given),–,46,> 10,–,–,–
CCCCc1ccc(CC(C)(Oc2ccc(C(C)C)cc2)C(=O)[O-])cc1.[Na+] (stereo not given),94,130,1,200%,92,Basal uptake (3T3-L1 [8]): 82%; Hypoglycemic activity (Mus musculus [7]): 17%
CC(C)c1ccc(OC(C)(Cc2ccc(Cl)cc2)C(=O)/N=C(\N)NO)cc1 (stereo not given),–,49,10,–,44,Hypoglycemic activity (Mus musculus [7]): <0%
CC(C)c1ccc(OC(C)(C(=O)O)C2CCc3cc(Cl)ccc32)cc1 (stereo in doubt; 101),86,–,–,85%,–,Hypoglycemic activity (Mus musculus [2]; 10 mg/kg): 35%; Basal uptake (3T3-L1 [8]): 71%; ED50 (Rattus norvegicus): >10 mg/kg
CC(C)c1ccc(OC(C)(Cc2ccc(Cl)c(Cl)c2)C(=O)O)cc1 (stereo not given),–,111,5,–,24,Hypoglycemic activity (Mus musculus [7]): 0%
CC(C)c1ccc(OC(C)(CO)Cc2ccc(Cl)cc2)cc1 (stereo not given),121,<0,10,118%,–,Basal uptake (3T3-L1 [8]): 118%
CC(Cc1ccc(Cl)cc1)(Oc1ccc(Br)cc1)C(=O)O (stereo not given),109,22,< 1,134%,–,Basal uptake (3T3-L1 [8]): 120%

Compound,Basal uptake (3T3-L1 [1]) [%],Hypoglycemic activity (Mus musculus [2]) [%],ED50 (Rattus norvegicus; [10]) [mg/kg],Basal uptake (3T3-L1 [3]),Hypoglycemic activity (Mus musculus [6]) [%],further results
Cc1cc(C)c(CC(C)(Oc2ccc(C(C)C)cc2)C(=O)[O-])c(C)c1.[Na+] (stereo not given),148,77,< 10,106%,–,Basal uptake (3T3-L1 [5]): 173%
CCCc1ccc(CC(C)(Oc2ccc(C(C)C)cc2)C(=O)NS(=O)(=O)C(F)(F)F)cc1 (stereo not given),–,35,> 10,–,–,–
COc1ccc(CC(C)(Oc2ccc(C(C)C)cc2)C(=O)O)cc1 (stereo not given),–,41,> 10,–,–,–
COc1ccc(Cc2ccc(OC(C)(Cc3ccc(Cl)cc3)C(=O)[O-])cc2)cc1.[Na+] (stereo not given),–,74,< 10,–,–,–
Cc1ccc(CC(C)(Oc2ccc(C(C)C)cc2)C(=O)[O-])cc1.[Na+] (stereo not given),–,106,< 1,–,100,Basal uptake (3T3-L1 [9]): 92%; Hypoglycemic activity (Mus musculus [7]): 58%
CC(C)c1ccc(OC(C)(COP(=O)([O-])[O-])Cc2ccc(Cl)cc2)cc1.[Ca+2] (stereo not given),–,50,> 10,–,–,–
CCCCc1cccc(CC(C)(Oc2ccc(C(C)C)cc2)C(=O)[O-])c1.[Na+] (stereo not given),129,91,1,113%,85,Hypoglycemic activity (Mus musculus [7]): <0%
COc1ccccc1CC(Oc1ccc(C(C)C)cc1)C(=O)O (stereo not given),–,<0,> 10,–,–,Basal uptake (3T3-L1 [5]): 78%
CC(C)c1ccc(OC(C(=O)O)C(C)c2ccc(Cl)cc2)cc1 (stereo not given),–,17,> 10,–,–,Basal uptake (3T3-L1 [5]): 111%
CC(Cc1ccc(Cl)cc1)(Oc1ccccc1Cc1ccc(Cl)cc1)C(=O)[O-].[Na+] (stereo not given),88,52,10,97% and 100%,–,–
CCc1ccc(CC(C)(Oc2ccc(C(C)C)cc2)C(=O)NS(=O)(=O)C(F)(F)F)cc1 (stereo not given),–,27,> 10,–,–,–
CC(C)c1ccc2c(c1)CC(Cc1ccc(Cl)cc1)(C(=O)O)O2 (stereo not given),–,–,> 50,–,–,Hypoglycemic activity (Mus musculus [4]): <0%; Basal uptake (3T3-L1 [5]): 66%
Cc1ccccc1S(=O)(=O)NC(=O)C(C)(Cc1ccc(Cl)cc1)Oc1ccc(C(C)C)cc1 (stereo not given),251,<0,> 10,232% and 126%,–,–
CC(C)C1CCC(OC(C)(Cc2ccc(Cl)cc2)C(=O)[O-])CC1.[Na+] (stereo not given),–,<0,> 10,–,–,–
CC(Cc1ccc(Cl)cc1)(Oc1ccc(C2CCSCC2)cc1)C(=O)[O-].[Na+] (stereo not given),–,64,< 10,–,–,Basal uptake (3T3-L1 [5]): 108%
CC(Cc1ccc(Cl)cc1)(Oc1ccc(Oc2ccccc2)cc1)C(=O)O (stereo not given),–,108,< 1,–,100,Hypoglycemic activity (Mus musculus [7]): 60%
Cc1cccc(CC(C)(Oc2ccc(C(C)C)cc2)C(=O)[O-])c1.[Na+] (stereo not given),98,83,< 1,84%,83,Basal uptake (3T3-L1 [8]): 93%; Hypoglycemic activity (Mus musculus [7]): 63%
COc1ccc(S(=O)(=O)NC(=O)C(C)(Cc2ccc(Cl)cc2)Oc2ccc(C(C)C)cc2)cc1 (stereo not given),101,22,> 10,154%,–,Basal uptake (3T3-L1 [5]): 67%
CC(C)c1ccc(OC(C)(Cc2ccc(Cl)cc2)C(=O)NS(C)(=O)=O)cc1 (stereo not given),100,–,5,255%,0,Hypoglycemic activity (Mus musculus [2]; 10 mg/kg): 96% and 100%; Basal uptake (3T3-L1 [5]): 200%
CC(C)c1ccc(OC(C)(Cc2ccc(Cl)cc2)C(=N)NO)cc1 (stereo not given),–,27,> 10,–,–,–
CC(C)c1ccc(OC(C)(Cc2ccc3c(c2)CCCC3)C(=O)[O-])cc1.[Na+] (stereo not given),–,99,< 5,–,75,–
COc1ccc(Cl)cc1C(=O)NCCc1ccc(CC(C)(Oc2ccc(C(C)C)cc2)C(=O)O)cc1 (stereo not given),–,24,> 10,–,–,–
CCC(Cc1ccc(Cl)cc1)(Oc1ccc(C(C)C)cc1)C(=O)[O-].[Na+] (stereo not given),–,–,> 5,–,36,Basal uptake (3T3-L1 [9]): 156%

# Reference: ChEMBL document CHEMBL1129417, “Glucose transport-enhancing and hypoglycemic activity of 2-methyl-2-phenoxy-3-phenylpropanoic acids” (1996)
